# Read-outs that look alike come from different tables or passages of the source.
# Test system: DLD-1 BRCA2−/− cells
# Experiment: Homologous recombination synthetic lethal inhibition of proliferation, DLD-1 BRCA2-/- (Cell Titre Glo 3D)
# Assay type: cell-based
# Conditions: Homo sapiens
# Outline: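 Cells are seeded in RPMI 1640 (phenol red free, 10% FBS, GlutaMAX) onto pre-dosed compound (10 μM to 0.51 nM, three-fold). Plates are incubated at 37 °C, and medium plus compound are refreshed on day 6. Viability is read by CellTiter-Glo 3D at day 7 (DLD-1) or day 12 (DLD-1 BRCA2−/−), and the IC50 is fitted.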
# [1] = DLD-1, proliferation, luminescence, taken as DLD-1 BRCA2-/-, read-out: POLQ PD Prolif Lumin (converted)
# [2] = DLD-1, first proliferation column (c5), DLD-1 BRCA2-/-, read-out: POLQ PD Prolif Lumin (converted)
# [3] = DLD-1, DLD-1 BRCA2 −/− cells, mean, read-out: POLQ PD Prolif Lumin BRCA2 −/− mean pIC50 (converted)
# [4] = DLD-1, DLD-1 BRCA2-/- proliferation, column head only partly shown, read-out: POLQ PD Prolif Lumin (converted)
# [5] = DLD-1, first proliferation column (c5), taken as DLD-1 BRCA2-/-, read-out: POLQ PD Prolif Lumin (converted)
# [6] = DLD-1, 288 h, DLD-1 BRCA2−/− cells, 12 days, read-out: POLQ PD Prolif Lumin BRCA2 −/− mean pIC50 (converted)
structure (smiles),measurement,setting,value
"Cc1ccnc(Cn2c(-c3ccc(C(=O)N4CCC[C@@H]4CO)cc3Cl)nc3c(OC4(C)CC4)ncnc32)c1 [Example T459, (R)-(3-chloro-4-(6-(1-methylcyclopropoxy)-9-((4-methylpyridin-2-yl)methyl)-9H-purin-8-yl)phenyl)(2-(hydroxymethyl)pyrrolidin-1-yl)methanone]",IC50,[1],1260 nM
"Cc1ccnc(Cn2c(-c3ccc(OCC(=O)N4CCCC4)cc3Cl)nc3c(OC4(C)CC4)ncnc32)c1 [Example T467, 2-(3-chloro-4-(6-(1-methylcyclopropoxy)-9-((4-methylpyridin-2-yl)methyl)-9H-purin-8-yl)phenoxy)-1-(pyrrolidin-1-yl)ethan-1-one]",IC50,[1],316 nM
"CNC(=O)[C@H]1CCN(c2ccc(-c3nc4c(OC5(C)CC5)ncnc4n3Cc3cc(C)ccn3)c(Cl)c2)C1 [Example T497, (S)-1-(3-chloro-4-(6-(1-methylcyclopropoxy)-9-((4-methylpyridin-2-yl)methyl)-9H-purin-8-yl)phenyl)-N-methylpyrrolidine-3-carboxamide]",IC50,[2],501 nM
"Cc1ccnc(Cn2c(-c3ccc(OCC(=O)N[C@@H]4CCOC4)cc3Cl)nc3c(OC4(C)CC4)ncnc32)c1 [Example T478, (R)-2-(3-chloro-4-(6-(1-methylcyclopropoxy)-9-((4-methylpyridin-2-yl)methyl)-9H-purin-8-yl)phenoxy)-N-(tetrahydrofuran-3-yl)acetamide]",IC50,[1],501 nM
"Cc1ccnc(Cn2c(-c3ccc(OCC(=O)N4CCOCC4)cc3Cl)nc3c(OC4(C)CC4)ncnc32)c1 [Example T475, 2-(3-chloro-4-(6-(1-methylcyclopropoxy)-9-((4-methylpyridin-2-yl)methyl)-9H-purin-8-yl)phenoxy)-1-morpholinoethan-1-one]",IC50,[1],251 nM
"Cc1ncccc1Cn1c(-c2ccc(CC(N)=O)cc2Cl)nc2c(OC3(C)CC3)ncnc21 [Example T60, 2-(3-chloro-4-(6-(1-methylcyclopropoxy)-9-((2-methylpyridin-3-yl)methyl)-9H-purin-8-yl)phenyl)acetamide]",IC50,[3],10000 nM
"CC1(Oc2ncnc3c2nc(-c2ccc(OCCN4CC5(CCN5)C4)cc2Cl)n3Cc2cc(Cl)ccn2)CC1 [Example T486, 8-(4-(2-(1,6-diazaspiro[3.3]heptan-6-yl)ethoxy)-2-chlorophenyl)-9-((4-chloropyridin-2-yl)methyl)-6-(1-methylcyclopropoxy)-9H-purine]",IC50,[2],501 nM
"CC(=O)NCCOc1ccc(-c2nc3c(OC4(C)CC4)ncnc3n2Cc2cc(C)ccn2)c(Cl)c1 [Example T219, N-(2-(3-chloro-4-(6-(1-methylcyclopropoxy)-9-((4-methylpyridin-2-yl)methyl)-9H-purin-8-yl)phenoxy)ethyl)acetamide]",IC50,[4],251 nM
"CNC(=O)COc1ccc(-c2nc3c(OC4(C)CC4)ncnc3n2Cc2ncc(C)s2)c(Cl)c1 [Example T28, 2-(3-chloro-4-(6-(1-methylcyclopropoxy)-9-((5-methylthiazol-2-yl)methyl)-9H-purin-8-yl)phenoxy)-N-methylacetamide]",IC50,[3],631 nM
"Cc1ccnc(Cn2c(-c3ccc(O[C@@H]4CC[C@@H](O)C4)cc3Cl)nc3c(OC4(C)CC4)ncnc32)c1 (relative stereo) [Example T330, rel-(1R,3R)-3-(3-chloro-4-(6-(1-methylcyclopropoxy)-9-((4-methylpyridin-2-yl)methyl)-9H-purin-8-yl)phenoxy)cyclopentan-1-ol]",IC50,[5],200 nM
"Cc1ccnc(Cn2c(-c3ccc(OCC(=O)N4CC[C@H](F)C4)cc3Cl)nc3c(OC4(C)CC4)ncnc32)c1 [Example T420, (S)-2-(3-chloro-4-(6-(1-methylcyclopropoxy)-9-((4-methylpyridin-2-yl)methyl)-9H-purin-8-yl)phenoxy)-1-(3-fluoropyrrolidin-1-yl)ethan-1-one]",IC50,[1],251 nM
"C[C@@H](COc1cccc(-c2nc3c(OC4(C)CC4)ncnc3n2Cc2cccc(Cl)c2)c1Cl)C(=O)O [Example T160, (S)-3-(2-chloro-3-(9-(3-chlorobenzyl)-6-(1-methylcyclopropoxy)-9H-purin-8-yl)phenoxy)-2-methylpropanoic acid]",IC50,[2],200 nM
"Cc1ccnc(Cn2c(-c3ccc(OCC(=O)N4CC(O)C4)cc3Cl)nc3c(OC4(C)CC4)ncnc32)c1 [Example T322, 2-(3-chloro-4-(6-(1-methylcyclopropoxy)-9-((4-methylpyridin-2-yl)methyl)-9H-purin-8-yl)phenoxy)-1-(3-hydroxyazetidin-1-yl)ethan-1-one]",IC50,[5],631 nM
"CC1(Oc2ncnc3c2nc(-c2ccc(CC(N)=O)cc2Cl)n3Cc2cccc(F)c2)CC1 [Example T42, 2-(3-chloro-4-(9-(3-fluorobenzyl)-6-(1-methylcyclopropoxy)-9H-purin-8-yl)phenyl)acetamide]",IC50,[3],158 nM
"Cc1ccnc(Cn2c(-c3ccc(C(=O)NCC(F)(F)F)cc3Cl)nc3c(OC4(C)CC4)ncnc32)c1 [Example T86, 3-chloro-4-(6-(1-methylcyclopropoxy)-9-((4-methylpyridin-2-yl)methyl)-9H-purin-8-yl)-N-(2,2,2-trifluoroethyl)benzamide]",IC50,[3],501 nM
"CC(Cc1ccccn1)n1c(-c2ccc(OCCN3CCNCC3)cc2Cl)nc2c(OC3(C)CC3)ncnc21 (single isomer, unassigned) [Example S7, 8-(2-chloro-4-(2-(piperazin-1-yl)ethoxy)phenyl)-6-(1-methylcyclopropoxy)-9-(1-(pyridin-2-yl)propan-2-yl)-9H-purine]",IC50,[6],6310 nM
"CNC(=O)CCc1ccc(-c2nc3c(OC4(C)CC4)ncnc3n2Cc2cc(C)ccn2)c(Cl)c1 [Example T214, 3-(3-chloro-4-(6-(1-methylcyclopropoxy)-9-((4-methylpyridin-2-yl)methyl)-9H-purin-8-yl)phenyl)-N-methylpropanamide]",IC50,[4],316 nM
"CC1(Oc2ncnc3c2nc(-c2ccc(OCCC(=O)O)cc2Cl)n3Cc2ccc(Cl)c(Cl)c2)CC1 [Example T84, 3-(3-chloro-4-(9-(3,4-dichlorobenzyl)-6-(1-methylcyclopropoxy)-9H-purin-8-yl)phenoxy)propanoic acid]",IC50,[3],2000 nM
"CC1(Oc2ncnc3c2nc(-c2ccc(CC(N)=O)cc2Cl)n3Cc2ccc(F)cc2C#N)CC1 [Example T78, 2-(3-chloro-4-(9-(2-cyano-4-fluorobenzyl)-6-(1-methylcyclopropoxy)-9H-purin-8-yl)phenyl)acetamide]",IC50,[3],5010 nM
"CC1(Oc2ncnc3c2nc(-c2ccc(OCCN4CCNC(C)(C)C4=O)cc2Cl)n3Cc2ccccc2)CC1 [Example R16, 1-(2-(4-(9-benzyl-6-(1-methylcyclopropoxy)-9H-purin-8-yl)-3-chlorophenoxy)ethyl)-3,3-dimethylpiperazin-2-one]",IC50,[6],63.1 nM
"Cc1ccnc(Cn2c(-c3ccc(CC(=O)N4CC[C@](C)(O)C4)cc3Cl)nc3c(OC4(C)CC4)ncnc32)c1 [Example T575, (S)-2-(3-chloro-4-(6-(1-methylcyclopropoxy)-9-((4-methylpyridin-2-yl)methyl)-9H-purin-8-yl)phenyl)-1-(3-hydroxy-3-methylpyrrolidin-1-yl)ethan-1-one]",IC50,"DLD-1, first proliferation column, DLD-1 BRCA2-/-, read-out: POLQ PD Prolif Lumin (converted)",316 nM
"Cc1ccnc(Cn2c(-c3ccc(C(=O)NCCCO)cc3Cl)nc3c(OC4(C)CC4)ncnc32)c1 [Example T217, 3-chloro-N-(3-hydroxypropyl)-4-(6-(1-methylcyclopropoxy)-9-((4-methylpyridin-2-yl)methyl)-9H-purin-8-yl)benzamide]",IC50,[4],1000 nM
